Test results taken from patent US11718614B2, “Compounds and methods for treatment of hedgehog pathway associated conditions” (Suzhou Mednes Pharma Tech Co., Ltd., priority 2018, dated 2023).

The compounds below were run on tumor cells from medulloblastoma developed from mice with deficiency in Patched1 gene (assay: MB assay: survival of medulloblastoma tumor cells by MTT after 48 hours). Conditions: Mus musculus, tumor cells treated 48 hours, cell survival by MTT.
Format: cell-based
Protocol: To test the effect of the novel compounds on the proliferation of tumor cell, we isolated tumor cells from medulloblastoma developed from mice with deficiency in Patched1 gene. Tumor cells were plated in vitro as previously described, and treated with various concentration of compounds for 48 hours. Tumor cells cultured were then harvested to measure cell survival based on MTT assay. The IC50 value for each compound was calculated using Prism the statistical software.
Table 1 below summarizes the IC50 data obtained using MB assay for exemplary compounds of the invention. IC50 values are shown as A, B, C, or D. A represents IC50 value between 1.0 μM and 5.0 μM; B is between 5.0 μM and 10 μM; C is between 10 μM to 20 μM; and D indicates greater than 20 μM.
`CC(C)c1ccc2c(c1)c(C(=O)C1CCC1)c(CC(C)(C)C(=O)O)n2Cc1ccc(Cl)cc1` [Compound 1, 3-(1-(4-chlorobenzyl)-3-(cyclobutanecarbonyl)-5-isopropyl-1H-indol-2-yl)-2,2-dimethylpropanoic acid] was tested, and the IC50 was 1 to 5 µM.
Work on `CCOC(=O)C(C)(C)Cc1c(C(=O)C2CCC2)c2cc(C(C)C)ccc2n1Cc1ccc(Cl)cc1` [Compound 2, ethyl 3-(1-(4-chlorobenzyl)-3-(cyclobutanecarbonyl)-5-isopropyl-1H-indol-2-yl)-2,2-dimethylpropanoate] yielded an IC50 of over 20 µM.
With `CC(C)c1ccc2c(c1)c(SCC(C)(C)C)c(CC(C)(C)C(=O)O)n2Cc1ccc(Cl)cc1` [Compound 3] the IC50 was 1 to 5 µM.
`CCOC(=O)C(C)(C)Cc1c(SCC(C)(C)C)c2cc(C(C)C)ccc2n1Cc1ccc(Cl)cc1` [Compound 4, ethyl 3-(1-(4-chlorobenzyl)-5-isopropyl-3-(neopentylthio)-1H-indol-2-yl)-2,2-dimethylpropanoate] showed an IC50 of over 20 µM.
Compound `CC(C)c1ccc2c(c1)c([S+]([O-])CC(C)(C)C)c(CC(C)(C)C(=O)O)n2Cc1ccc(Cl)cc1` (stereo not drawn) [Compound 5] has an IC50 of over 20 µM.
Compound `CCOC(=O)C(C)(C)Cc1c([S+]([O-])CC(C)(C)C)c2cc(C(C)C)ccc2n1Cc1ccc(Cl)cc1` (stereo not drawn) [Compound 6] has an IC50 of 10 to 20 µM.
`CC(C)c1ccc2c(c1)c(S(=O)(=O)CC(C)(C)C)c(CC(C)(C)C(=O)O)n2Cc1ccc(Cl)cc1` [Compound 7] showed an IC50 of 10 to 20 µM.
In the case of `CCOC(=O)C(C)(C)Cc1c(S(=O)(=O)CC(C)(C)C)c2cc(C(C)C)ccc2n1Cc1ccc(Cl)cc1` [Compound 8], the IC50 is reported as 10 to 20 µM.
Compound `CC(C)C(=O)c1c(CC(C)(C)C(=O)O)n(Cc2ccc(Cl)cc2)c2ccc(C(C)C)cc12` [Compound 9, 3-(1-(4-chlorobenzyl)-3-isobutyryl-5-isopropyl-1H-indol-2-yl)-2,2-dimethylpropanoic Acid] has an IC50 of 10 to 20 µM.
For `CCOC(=O)C(C)(C)Cc1c(C(=O)C(C)C)c2cc(C(C)C)ccc2n1Cc1ccc(Cl)cc1` [Compound 10, Ethyl 3-(1-(4-chlorobenzyl)-3-isobutyryl-5-isopropyl-1H-indol-2-yl)-2,2-dimethylpropanoate], the IC50 was over 20 µM.
In the case of `CC(C)c1ccc2c(c1)c(SC(C)(C)C)c(CCC(=O)O)n2Cc1ccc(Cl)cc1` [Compound 11, 3-(3-(tert-butylthio)-1-(4-chlorobenzyl)-5-isopropyl-1H-indol-2-yl) Propanoic Acid], the IC50 is reported as 5 to 10 µM.
`CCOC(=O)CCc1c(SC(C)(C)C)c2cc(C(C)C)ccc2n1Cc1ccc(Cl)cc1` [Compound 12] showed an IC50 of over 20 µM.
Work on `CC(C)c1ccc2c(c1)c(SC(C)(C)C)c(CC(=O)O)n2Cc1ccc(Cl)cc1` [Compound 13, 2-(3-(tert-butylthio)-1-(4-chlorobenzyl)-5-isopropyl-1H-indol-2-yl) Acetic Acid] yielded an IC50 of 10 to 20 µM.
Compound `COC(=O)Cc1c(SC(C)(C)C)c2cc(C(C)C)ccc2n1Cc1ccc(Cl)cc1` [Compound 14, methyl 2-(3-(tert-butylthio)-1-(4-chlorobenzyl)-5-isopropyl-1H-indol-2-yl)acetate] has an IC50 of over 20 µM.
Compound `CC(C)c1ccc2c(c1)c(SC(C)(C)C)c(CC(C)(C)C)n2Cc1ccc(Cl)cc1` [Compound 15] has an IC50 of over 20 µM.
Compound `CC(C)c1cnc2c(c1)c(C(=O)C1CCC1)c(CC(C)(C)C(=O)O)n2Cc1ccc(Cl)cc1` [Compound 16, 3-(1-(4-chlorobenzyl)-3-(cyclobutanecarbonyl)-5-isopropyl-1H-pyrrolo-[2,3-b]pyridin-2-yl)-2,2-dimethylpropanoic acid] has an IC50 of 10 to 20 µM.
`COc1cnc2c(c1)c(SC(C)(C)C)c(CC(C)(C)C(=O)O)n2Cc1ccc(Cl)cc1` [Compound 17] showed an IC50 of over 20 µM.
With `CCOC(=O)C(C)(C)Cc1c(SC(C)(C)C)c2cc(OC)cnc2n1Cc1ccc(Cl)cc1` [Compound 18] the IC50 was over 20 µM.
`CC(C)(C)CC(=O)c1c(CC(C)(C)C(=O)O)n(Cc2ccc(Cl)cc2)c2ccc(O)cc12` [Compound 19] showed an IC50 of over 20 µM.
Work on `CC(C)(C)CCc1c(CC(C)(C)CO)n(Cc2ccc(Cl)cc2)c2ccc(O)cc12` [Compound 20] yielded an IC50 of 1 to 5 µM.
Work on `COC(=O)C(C)(C)Cc1c(C(=O)CC(C)(C)C)c2cc(OC)ccc2n1Cc1ccc(Cl)cc1` [Compound 21] yielded an IC50 of over 20 µM.
Compound `COc1ccc2c(c1)c(C(=O)CC(C)(C)C)c(CC(C)(C)C(=O)O)n2Cc1ccc(Cl)cc1` [Compound 22] has an IC50 of over 20 µM.
`COc1ccc2c(c1)c(C(=O)CC(C)(C)C)c(CC(C)(C)CO)n2Cc1ccc(Cl)cc1` [Compound 23] showed an IC50 of 5 to 10 µM.
Compound `COC(=O)C(C)(C)Cc1c(C(=O)CC(C)(C)C)c2cc(O)ccc2n1Cc1ccc(Cl)cc1` [Compound 24] has an IC50 of 1 to 5 µM.
`CC(C)(C)CC(=O)c1c(CC(C)(C)CO)n(Cc2ccc(Cl)cc2)c2ccc(O)cc12` [Compound 25] gave an IC50 of over 20 µM.
`COc1ccc2c(c1)c(CCC(C)(C)C)c(CC(C)(C)CO)n2Cc1ccc(Cl)cc1` [Compound 26] showed an IC50 of 1 to 5 µM.
For `CC(C)c1ccc2c(C(=O)c3ccc(Cl)cc3)c(CC(C)(C)C(=O)O)n(CC3CCC3)c2c1` [Compound 27], the IC50 was 5 to 10 µM.
In the case of `COC(=O)C(C)(C)Cc1c(C(=O)c2ccc(Cl)cc2)c2ccc(C(C)C)cc2n1CC1CCC1` [Compound 28, methyl 3-(3-(4-chlorobenzoyl)-1-(cyclobutylmethyl)-6-isopropyl-1H-indol-2-yl)-2,2-dimethylpropanoate], the IC50 is reported as over 20 µM.
In the case of `CC(C)(Cc1c(C(=O)c2ccc(Cl)cc2)c2ccc(O)cc2n1CC1CCC1)C(=O)O` [Compound 29, 3-(3-(4-chlorobenzoyl)-1-(cyclobutylmethyl)-6-hydroxy-1H-indol-2-yl)-2,2-dimethylpropanoic Acid], the IC50 is reported as over 20 µM.
Compound `CCOC(=O)C(C)(C)Cc1c(C(=O)c2ccc(Cl)cc2)c2ccc(O)cc2n1CC1CCC1` [Compound 30, Ethyl 3-(3-(4-chlorobenzoyl)-1-(cyclobutylmethyl)-6-hydroxy-1H-indol-2-yl)-2,2-dimethylpropanoate] has an IC50 of over 20 µM.
`COc1ccc2c(c1)c(SC(C)(C)C)c(CC(C)(C)c1nc(C)co1)n2Cc1ccc(Cl)cc1` [Compound 31] gave an IC50 of over 20 µM.
For `Cc1coc(C(C)(C)Cc2c(SC(C)(C)C)c3cc(O)ccc3n2Cc2ccc(Cl)cc2)n1` [Compound 32], the IC50 was 1 to 5 µM.
With `CCc1noc(C(C)(C)Cc2c(SC(C)(C)C)c3cc(OC)ccc3n2Cc2ccc(Cl)cc2)n1` [Compound 33] the IC50 was over 20 µM.
`CCc1noc(C(C)(C)Cc2c(SC(C)(C)C)c3cc(O)ccc3n2Cc2ccc(Cl)cc2)n1` [Compound 34] was tested, and the IC50 was 5 to 10 µM.
`COc1ccc2c(c1)c(SC(C)(C)C)c(CC(C)(C)c1nnnn1C)n2Cc1ccc(Cl)cc1` [Compound 35, 3-(tert-butylthio)-1-(4-chlorobenzyl)-5-methoxy-2-(2-methyl-2-(1-methyl-1H-tetrazol-5-yl)propyl)-1H-indole] showed an IC50 of 5 to 10 µM.
Work on `COc1ccc2c(c1)c(SC(C)(C)C)c(CC(C)(C)c1nnn(C)n1)n2Cc1ccc(Cl)cc1` [Compound 36, 3-(tert-butylthio)-1-(4-chlorobenzyl)-5-methoxy-2-(2-methyl-2-(2-methyl-2H-tetrazol-5-yl)propyl)-1H-indole] yielded an IC50 of 5 to 10 µM.
In the case of `Cn1nnnc1C(C)(C)Cc1c(SC(C)(C)C)c2cc(O)ccc2n1Cc1ccc(Cl)cc1` [Compound 37, 3-(tert-butylthio)-1-(4-chlorobenzyl)-2-(2-methyl-2-(1-methyl-1H-tetrazol-5-yl)propyl)-1H-indol-5-ol], the IC50 is reported as 10 to 20 µM.
In the case of `COc1ccc2c(c1)nc(C(C)c1ccc(Br)cc1)n2Cc1ccccc1Cl` (stereo not drawn) [Compound 39], the IC50 is reported as 5 to 10 µM.
Compound `COc1ccc2c(c1)nc(C(C)c1ccc(C#N)cc1)n2Cc1ccccc1Cl` (stereo not drawn) [Compound 40] has an IC50 of over 20 µM.
For `COc1ccc2c(c1)nc(C(C)c1ccc(C(=O)O)cc1)n2Cc1ccccc1Cl` (stereo not drawn) [Compound 41], the IC50 was over 20 µM.
In the case of `COC(=O)c1ccc(C(C)c2nc3cc(OC)ccc3n2Cc2ccccc2Cl)cc1` (stereo not drawn) [Compound 42], the IC50 is reported as over 20 µM.
`COc1ccc2c(c1)nc(C(C)c1ccc(CO)cc1)n2Cc1ccccc1Cl` (stereo not drawn) [Compound 43] was tested, and the IC50 was over 20 µM.
`COc1ccc2c(c1)nc(C(C)c1ccc(CC#N)cc1)n2Cc1ccccc1Cl` (stereo not drawn) [Compound 44] gave an IC50 of over 20 µM.
Compound `COc1ccc2c(c1)nc(C(C)c1ccc(CC(=O)O)cc1)n2Cc1ccccc1Cl` (stereo not drawn) [Compound 45] has an IC50 of over 20 µM.
Compound `COC(=O)Cc1ccc(C(C)c2nc3cc(OC)ccc3n2Cc2ccccc2Cl)cc1` (stereo not drawn) [Compound 46] has an IC50 of 10 to 20 µM.
In the case of `COc1ccc2c(c1)nc(C(C)c1ccc(CCO)cc1)n2Cc1ccccc1Cl` (stereo not drawn) [Compound 47], the IC50 is reported as over 20 µM.
`COc1ccc2c(c1)cc(C(C)c1ccc(CC(C)C)cc1)n2Cc1cccc(Cl)c1` (stereo not drawn) [Compound 48] showed an IC50 of over 20 µM.
Compound `CC(C)Cc1ccc(C(C)c2cc3cc(O)ccc3n2Cc2cccc(Cl)c2)cc1` (stereo not drawn) [Compound 49] has an IC50 of 1 to 5 µM.
`COc1ccc2c(c1)nc(-c1ccc(CC(C)C)cc1)n2Cc1ccccc1Cl` [Compound 50] was tested, and the IC50 was 10 to 20 µM.
Compound `CC(C)Cc1ccc(-c2nc3cc(O)ccc3n2Cc2ccccc2Cl)cc1` [Compound 51] has an IC50 of 5 to 10 µM.
`CC(C)Cc1ccc(C(C)c2nc3cc(Br)ccc3n2Cc2ccccc2Cl)cc1` (stereo not drawn) [Compound 52] was tested, and the IC50 was over 20 µM.
Compound `CC(C)Cc1ccc(C(C)c2nc3cc(C(=O)O)ccc3n2Cc2ccccc2Cl)cc1` (stereo not drawn) [Compound 53] has an IC50 of 10 to 20 µM.
With `COc1ccc2c(c1)c(-c1ccc(CC(C)C)cc1)c(C)n2Cc1ccccc1Cl` [Compound 54] the IC50 was over 20 µM.
`Cc1c(-c2ccc(CC(C)C)cc2)c2cc(O)ccc2n1Cc1ccccc1Cl` [Compound 55] was tested, and the IC50 was 1 to 5 µM.
Work on `COc1ccc2c(c1)c(-c1ccc(CC(C)C)cc1)cn2Cc1ccccc1Cl` [Compound 56, 1-(2-chlorobenzyl)-3-(4-isobutylphenyl)-5-methoxy-1H-indole] yielded an IC50 of over 20 µM.
With `COc1ccc2c(c1)nc(CC(C)(C)C(=O)O)n2Cc1ccccc1Cl` [Compound 57] the IC50 was over 20 µM.

Same assay, conditions: tumor cells treated 48 hours, cell survival by MTT
In the case of “3-(tert-butylthio)-1-(4-chlorobenzyl)-2-(2-methyl-2-(2-methyl-2H-tetrazol-5-yl)propyl)-1H-indol-5-ol [Compound 38]”, the IC50 is reported as 1 to 5 µM.
